Reference: patent EP0584797A2, “Novel cephalosporin compounds and processes for the preparation thereof” (LUCKY LTD., priority 1992, dated 1994)
Converted amounts (≈) assume the structure as drawn.

Tests used:
Test in all cases: minimal inhibitory concentration, two-fold agar dilution
Assay type in all cases: cell-based
[1] = system: Escherichia coli ATCC 10536; settings: ATCC10536, Muller-Hinton agar, 37°C, 20 hours, read-out: MIC values against the standard strains
Procedure: (§1) These MIC values were taken by employing a two-fold dilution method: that is, two-fold serial dilutions of each of the test compounds were made and dispersed in a Muller-Hinton agar medium; 2µl of the standard test strain which had the 10⁷ CFU(Colony Forming Unit) per ml was inoculated on the medium; and these were incubated at 37°C for 20 hours.

[2] = system: Bacillus cereus ATCC 11778; settings: ATCC11778, Muller-Hinton agar, 37°C, 20 hours, read-out: MIC values against the standard strains
Procedure: as §1

[3] = system: Citrobacter freundii ATCC 8090; settings: ATCC8090, Muller-Hinton agar, 37°C, 20 hours, read-out: MIC values against the standard strains
Procedure: as §1

[4] = system: Pseudomonas aeruginosa ATCC 10145; settings: ATCC10145, Muller-Hinton agar, 37°C, 20 hours, read-out: MIC values against the standard strains
Procedure: as §1

[5] = system: Serratia marcescens ATCC 27117; settings: ATCC27117, Muller-Hinton agar, 37°C, 20 hours, read-out: MIC values against the standard strains
Procedure: as §1

[6] = system: Escherichia coli ATCC 25922; settings: ATCC25922, Muller-Hinton agar, 37°C, 20 hours, read-out: MIC values against the standard strains
Procedure: as §1

[7] = system: Enterobacter cloacae ATCC 27508; settings: ATCC27508, Muller-Hinton agar, 37°C, 20 hours, read-out: MIC values against the standard strains
Procedure: as §1

[8] = system: Pseudomonas aeruginosa ATCC 27853; settings: ATCC27853, Muller-Hinton agar, 37°C, 20 hours, read-out: MIC values against the standard strains
Procedure: as §1

[9] = system: Shigella sonnei ATCC 11060; settings: ATCC11060, Muller-Hinton agar, 37°C, 20 hours, read-out: MIC values against the standard strains
Procedure: as §1

[10] = system: Morganella morganii ATCC 8076h; settings: ATCC8076H, Muller-Hinton agar, 37°C, 20 hours, read-out: MIC values against the standard strains
Procedure: as §1

[11] = system: Staphylococcus epidermidis ATCC 12228; settings: ATCC12228, Muller-Hinton agar, 37°C, 20 hours, read-out: MIC values against the standard strains
Procedure: as §1

[12] = system: Enterobacter aerogenes ATCC 29751; settings: Klebsiella aerogenes, ATCC29751; Muller-Hinton agar; 37°C; 20 hours; read-out: MIC values against the standard strains
Procedure: as §1

[13] = system: Proteus mirabilis ATCC 25933; settings: ATCC25933, Muller-Hinton agar, 37°C, 20 hours, read-out: MIC values against the standard strains
Procedure: as §1

[14] = system: Micrococcus luteus ATCC 9341; settings: ATCC9341, Muller-Hinton agar, 37°C, 20 hours, read-out: MIC values against the standard strains
Procedure: as §1

[15] = system: Klebsiella pneumoniae ATCC 10031; settings: ATCC10031, Muller-Hinton agar, 37°C, 20 hours, read-out: MIC values against the standard strains
Procedure: as §1

[16] = system: Pseudomonas aeruginosa ATCC 25619; settings: ATCC25619, Muller-Hinton agar, 37°C, 20 hours, read-out: MIC values against the standard strains
Procedure: as §1

[17] = system: Streptococcus faecalis ATCC 29212; settings: Enterococcus faecalis, ATCC29212; Muller-Hinton agar; 37°C; 20 hours; read-out: MIC values against the standard strains
Procedure: as §1

[18] = system: Staphylococcus aureus ATCC 6538p; settings: ATCC6538P, Muller-Hinton agar, 37°C, 20 hours, read-out: MIC values against the standard strains
Procedure: as §1

[19] = system: Providencia rettgeri ATCC 9250; settings: ATCC9250, Muller-Hinton agar, 37°C, 20 hours, read-out: MIC values against the standard strains
Procedure: as §1

[20] = system: Bacillus megaterium ATCC 9885; settings: Priestia megaterium, ATCC9885; Muller-Hinton agar; 37°C; 20 hours; read-out: MIC values against the standard strains
Procedure: as §1

[21] = system: Staphylococcus aureus ATCC 10537; settings: ATCC10537, Muller-Hinton agar, 37°C, 20 hours, read-out: MIC values against the standard strains
Procedure: as §1

[22] = system: Proteus vulgaris ATCC 6059; settings: ATCC6059, Muller-Hinton agar, 37°C, 20 hours, read-out: MIC values against the standard strains
Procedure: as §1

[23] = system: Salmonella typhimurium ATCC 14028; settings: Salmonella enterica; Muller-Hinton agar; 37°C; 20 hours; read-out: MIC values against the standard strains
Procedure: as §1

[24] = system: Shigella flexneri ATCC 11836; settings: ATCC11836, Muller-Hinton agar, 37°C, 20 hours, read-out: MIC values against the standard strains
Procedure: as §1

[25] = system: Acinetobacter calcoaceticus ATCC 15473; settings: ATCC15473, Muller-Hinton agar, 37°C, 20 hours, read-out: MIC values against the standard strains
Procedure: as §1

SMILES | MIC [1] [µg/mL] | MIC [2] [µg/mL] | MIC [3] [µg/mL] | MIC [4] [µg/mL] | MIC [5] [µg/mL] | MIC [6] [µg/mL] | MIC [7] [µg/mL] | MIC [8] [µg/mL] | MIC [9] [µg/mL] | MIC [10] [µg/mL] | MIC [11] [µg/mL] | MIC [12] [µg/mL] | MIC [13] [µg/mL] | MIC [14] [µg/mL] | MIC [15] [µg/mL] | MIC [16] [µg/mL] | MIC [17] [µg/mL] | MIC [18] [µg/mL] | MIC [19] [µg/mL] | MIC [20] [µg/mL] | other results
CC(C)(O/N=C(\C(=O)N[C@@H]1C(=O)N2C(C(=O)[O-])=C(C[n+]3ccccc3)CS[C@H]12)c1csc(N)n1)C(=O)O [Ceftazidime, reference compound] | 0.13 (≈ 0.238 µM) | 128 (≈ 234 µM) | 0.13 (≈ 0.238 µM) | 2 (≈ 3.66 µM) | 0.13 (≈ 0.238 µM) | 0.13 (≈ 0.238 µM) | 0.031 (≈ 0.0567 µM) | 1 (≈ 1.83 µM) | 0.13 (≈ 0.238 µM) | ≤ 0.008 | 4 (≈ 7.32 µM) | 8 (≈ 14.6 µM) | 0.063 (≈ 0.115 µM) | 0.5 (≈ 0.915 µM) | 0.13 (≈ 0.238 µM) | 1 (≈ 1.83 µM) | > 128 | 8 (≈ 14.6 µM) | ≤ 0.008 | 0.25 (≈ 0.457 µM) | MIC [21]: 4 µg/mL (≈ 7.32 µM); MIC [22]: 0.063 µg/mL (≈ 0.115 µM); MIC [23]: 0.25 µg/mL (≈ 0.457 µM); MIC [24]: 0.031 µg/mL (≈ 0.0567 µM); MIC [25]: 2 µg/mL (≈ 3.66 µM)
CCO/N=C(\C(=O)N[C@@H]1C(=O)N2C(C(=O)[O-])=C(CSc3nc(N)cc[n+]3N)CS[C@H]12)c1csc(N)n1 [Example 42, 7-[(Z)-2-(2-aminothiazol-4-yl)-2-(ethoxyimino)acetamido]-3-(1,4-diaminopyrimidinium-2-yl)thiomethyl-3-cephem-4-carboxylate] | 0.031 (≈ 0.0562 µM) | 32 (≈ 58 µM) | 0.063 (≈ 0.114 µM) | 8 (≈ 14.5 µM) | 0.5 (≈ 0.906 µM) | 0.031 (≈ 0.0562 µM) | ≤ 0.008 | 4 (≈ 7.25 µM) | 0.25 (≈ 0.453 µM) | 0.25 (≈ 0.453 µM) | 0.031 (≈ 0.0562 µM) | 0.13 (≈ 0.236 µM) | 1 (≈ 1.81 µM) | ≤ 0.008 | ≤ 0.008 | 0.5 (≈ 0.906 µM) | 8 (≈ 14.5 µM) | 0.13 (≈ 0.236 µM) | 0.063 (≈ 0.114 µM) | 0.063 (≈ 0.114 µM) | MIC [21]: 0.13 µg/mL (≈ 0.236 µM); MIC [22]: 1 µg/mL (≈ 1.81 µM); MIC [23]: 0.5 µg/mL (≈ 0.906 µM); MIC [24]: 0.25 µg/mL (≈ 0.453 µM); MIC [25]: 4 µg/mL (≈ 7.25 µM)
CCO/N=C(\C(=O)N[C@@H]1C(=O)N2C(C(=O)[O-])=C(CSc3nc(N)c(N)c[n+]3N)CS[C@H]12)c1csc(N)n1 [Example 46, 7-[(Z)-2-(2-aminothiazol-4-yl)-2-(ethoxyimino)acetamido]-3-(1,4,5-triaminopyrimidinium-2-yl)thiomethyl-3-cephem-4-carboxylate] | 0.031 (≈ 0.0547 µM) | 64 (≈ 113 µM) | 0.063 (≈ 0.111 µM) | 8 (≈ 14.1 µM) | 0.25 (≈ 0.441 µM) | 0.031 (≈ 0.0547 µM) | ≤ 0.008 | 4 (≈ 7.06 µM) | 0.031 (≈ 0.0547 µM) | 0.016 (≈ 0.0282 µM) | 0.031 (≈ 0.0547 µM) | 1 (≈ 1.76 µM) | 0.25 (≈ 0.441 µM) | 0.031 (≈ 0.0547 µM) | 0.063 (≈ 0.111 µM) | 0.5 (≈ 0.882 µM) | 8 (≈ 14.1 µM) | 0.25 (≈ 0.441 µM) | 0.031 (≈ 0.0547 µM) | 0.063 (≈ 0.111 µM) | MIC [21]: 0.13 µg/mL (≈ 0.229 µM); MIC [22]: 0.25 µg/mL (≈ 0.441 µM); MIC [23]: 0.25 µg/mL (≈ 0.441 µM); MIC [24]: 0.031 µg/mL (≈ 0.0547 µM); MIC [25]: 4 µg/mL (≈ 7.06 µM)
C[n+]1c(SCC2=C(C(=O)[O-])N3C(=O)[C@@H](NC(=O)/C(=N\OC(C)(C)C(=O)O)c4csc(N)n4)[C@H]3SC2)nc(N)c2ccoc21 [Example 32, 7-[(Z)-2-(2-aminothiazol-4-yl)-2-(carboxyprop-2-oxyimino)acetamido]-3-(4-amino-1-methylfuro[5,6,e]pyrimidinium-2-yl-)thiomethyl-3-cephem-4-carboxylate] | 0.063 (≈ 0.0971 µM) | 128 (≈ 197 µM) | 0.13 (≈ 0.2 µM) | 4 (≈ 6.17 µM) | 0.25 (≈ 0.385 µM) | 0.063 (≈ 0.0971 µM) | 0.016 (≈ 0.0247 µM) | 2 (≈ 3.08 µM) | 0.13 (≈ 0.2 µM) | ≤ 0.008 | 2 (≈ 3.08 µM) | 2 (≈ 3.08 µM) | 0.13 (≈ 0.2 µM) | 0.25 (≈ 0.385 µM) | 0.016 (≈ 0.0247 µM) | 1 (≈ 1.54 µM) | > 128 | 4 (≈ 6.17 µM) | ≤ 0.008 | 0.13 (≈ 0.2 µM) | MIC [21]: 2 µg/mL (≈ 3.08 µM); MIC [22]: 0.13 µg/mL (≈ 0.2 µM); MIC [23]: 0.25 µg/mL (≈ 0.385 µM); MIC [24]: 0.031 µg/mL (≈ 0.0478 µM); MIC [25]: 8 µg/mL (≈ 12.3 µM)
CCO/N=C(\C(=O)N[C@@H]1C(=O)N2C(C(=O)[O-])=C(CSc3nc(N)c4cccnc4[n+]3C)CS[C@H]12)c1csc(N)n1 [Example 31, 7-[(Z)-2-(2-aminothiazol-4-yl)-2-(ethoxyimino)acetamido]-3-(6-amino-3-methylpyrido[5,6,e]pyrimidinium-4-yl)thiomethyl-3-cephem-4-carboxylate] | 0.25 (≈ 0.415 µM) | 32 (≈ 53.2 µM) | 0.25 (≈ 0.415 µM) | 32 (≈ 53.2 µM) | 1 (≈ 1.66 µM) | 0.13 (≈ 0.216 µM) | 0.016 (≈ 0.0266 µM) | 16 (≈ 26.6 µM) | 0.25 (≈ 0.415 µM) | 0.016 (≈ 0.0266 µM) | 0.063 (≈ 0.105 µM) | 0.5 (≈ 0.831 µM) | 1 (≈ 1.66 µM) | 0.031 (≈ 0.0515 µM) | ≤ 0.008 | 4 (≈ 6.65 µM) | 16 (≈ 26.6 µM) | 0.13 (≈ 0.216 µM) | 0.016 (≈ 0.0266 µM) | 0.13 (≈ 0.216 µM) | MIC [21]: 0.13 µg/mL (≈ 0.216 µM); MIC [22]: 1 µg/mL (≈ 1.66 µM); MIC [23]: 1 µg/mL (≈ 1.66 µM); MIC [24]: 0.13 µg/mL (≈ 0.216 µM); MIC [25]: 16 µg/mL (≈ 26.6 µM)
CC(C)(O/N=C(\C(=O)N[C@@H]1C(=O)N2C(C(=O)[O-])=C(CSc3nc(N)c(N)c[n+]3N)CS[C@H]12)c1csc(N)n1)C(=O)O [Example 47, 7-[(Z)-2-(2-aminothiazol-4-yl)-2-(carboxyprop-2-oxyimino)acetamido]-3-(1,4,5-triaminopyrimidinium-2-yl)thiomethyl-3-cephem-4-carboxylate] | 0.031 (≈ 0.0496 µM) | 128 (≈ 205 µM) | 0.031 (≈ 0.0496 µM) | 2 (≈ 3.2 µM) | 0.13 (≈ 0.208 µM) | 0.031 (≈ 0.0496 µM) | ≤ 0.008 | 2 (≈ 3.2 µM) | 0.031 (≈ 0.0496 µM) | ≤ 0.008 | 2 (≈ 3.2 µM) | 1 (≈ 1.6 µM) | 0.063 (≈ 0.101 µM) | 0.25 (≈ 0.4 µM) | 0.031 (≈ 0.0496 µM) | 1 (≈ 1.6 µM) | > 128 | 4 (≈ 6.4 µM) | ≤ 0.008 | 0.5 (≈ 0.8 µM) | MIC [21]: 2 µg/mL (≈ 3.2 µM); MIC [22]: 0.063 µg/mL (≈ 0.101 µM); MIC [23]: 0.13 µg/mL (≈ 0.208 µM); MIC [24]: 0.031 µg/mL (≈ 0.0496 µM); MIC [25]: 16 µg/mL (≈ 25.6 µM)
